According to patent publication US20040086901A1, “Database for analyzing gene function and method of analyzing gene function by dspa” (priority 2000, published 2004):

Experiments:
Assay type in all cases: cell-based, mouse
[1] = tested on: NIH3T3 cells overexpressing Ki-ras; experiment: MTT cell viability, Ki-ras overexpressing cells vs parental line; conditions: Ki-ras high-expressing cells / parental cell line, 3 to 4 days
Protocol: (§1) With regard to the function-known genes, the genes shown in the left column of Table 2 were used. With regard to the drugs, those shown in Table 1 were dissolved in DMSO to an extent of 100-fold of the maximum concentration for the search of the drugs and used. With regard to the cells, incubated NIH3T3 or ras-NIH3T3 cells were used.
(§2) Full-length cDNA of each function-known genes was incorporated into an expression vector (pRc-CMV, etc.) and transfected into NIH3T3 cells by a common method. Transformed cells were isolated using the resistance to G-418 as an index and the expression of the transfected gene in each cell was investigated by Western blotting method to select a highly expressing line.
(§3) Cell viabilities were measured according to the following procedures.
(§4) 1) From the 2nd to the 11th rows of a 96-well plate were filled with DMEM (50 μl). The 12th row was filled with 100 μl of DMEM.
(§5) 2) The 1st row was filled with 98 μl of DMEM.
(§6) 3) Drugs (2 μl each) were added into the 1st row.
(§7) 4) Continuous double-dilution was conducted from the 1st to the 9th rows. Fifty μl were taken out from the 9th row and discarded. The plate was preserved in a CO2 incubator.
(§8) 5) Cells (each high-expressing cells and the parental cell line) were detached from the medium using a trypsin solution, suspended in 10% CS-DMEM and transferred to a test tube and cell numbers (cell/ml) were counted.
(§9) 6) The cells were diluted to a concentration of 1×10^5 cells/ml, and 50 μl of the cell suspension were added to the 1st to the 11th rows of the plate followed by gently stirring.
(§10) 7) The plate was transferred to the CO2 incubator and incubated for 3 to 4 days.
(§11) 8) MTT (5 mg/ml in PBS) (10 μl) was added to the 1st to the 12th rows of the plate and incubated in the CO2 incubator at 37° C. for 4 hours.
(§12) 9) A reaction stop solution (0.04N HCl in isopropanol) (150 μl) was added followed by mixing well and being allowed to stand at room temperature for about 2 hours.
(§13) 10) Coloration of formazan which was a metabolite of the MTT dye was measured using a microplate reader. The measurement wavelength was 574 nm and the reference wavelength was 655 nm. The 10th and the 11th rows of the plate were 100% controls and the 12th row was a 0% control.
(§14) As an index for the sensitivity of highly gene-expressing cells and the parental cell line to various drugs, each of the IC40 values thereof was specified and ratios of the IC40 values were calculated. FIG. 2 and FIG. 3 are the examples where ratios of IC40 values were calculated from a curve showing the dependency on the concentration of the chemical versus the viability. After that, logarithmic values of ratios of IC40 values were calculated from each gene.

[2] = tested on: NIH3T3 cells overexpressing CaMKIIa; experiment: MTT cell viability, CaMKIIa overexpressing cells vs parental line; conditions: CaMKIIa high-expressing cells / parental cell line, 3 to 4 days
Protocol: as §1, §2, §3, §4, §5, §6, §7, §8, §9, §10, §11, §12, §13
(§15) As an index for the sensitivity of highly gene-expressing cells and the parental cell line to various drugs, each of the IC40 values thereof was specified and ratios of the IC40 values were calculated. […] After that, logarithmic values of ratios of IC40 values were calculated from each gene.

[3] = tested on: NIH3T3 cells overexpressing p38-DN; experiment: MTT cell viability, p38-DN overexpressing cells vs parental line; conditions: p38-DN high-expressing cells / parental cell line, 3 to 4 days
Protocol: as §1, §2, §3, §4, §5, §6, §7, §8, §9, §10, §11, §12, §13, §15

[4] = tested on: NIH3T3 cells overexpressing PDGF-R; experiment: MTT cell viability, PDGF-R overexpressing cells vs parental line; conditions: PDGF-R high-expressing cells / parental cell line, 3 to 4 days
Protocol: as §1, §2, §3, §4, §5, §6, §7, §8, §9, §10, §11, §12, §13, §14

[5] = tested on: NIH3T3 cells overexpressing p33/ING1; experiment: MTT cell viability, p33/ING1 overexpressing cells vs parental line; conditions: p33/ING1 high-expressing cells / parental cell line, 3 to 4 days
Protocol: as §1, §2, §3, §4, §5, §6, §7, §8, §9, §10, §11, §12, §13, §14

[6] = tested on: NIH3T3 cells overexpressing CBP8; experiment: MTT cell viability, CBP8 overexpressing cells vs parental line; conditions: CBP8 high-expressing cells / parental cell line, 3 to 4 days
Protocol: as §1, §2, §3, §4, §5, §6, §7, §8, §9, §10, §11, §12, §13, §14

[7] = tested on: NIH3T3 cells overexpressing STAT1; experiment: MTT cell viability, STAT1 overexpressing cells vs parental line; conditions: STAT1 high-expressing cells / parental cell line, 3 to 4 days
Protocol: as §1, §2, §3, §4, §5, §6, §7, §8, §9, §10, §11, §12, §13, §15

[8] = tested on: NIH3T3 cells overexpressing Bax; experiment: MTT cell viability, Bax overexpressing cells vs parental line; conditions: 3 to 4 days
Protocol: as §1, §2, §3, §4, §5, §6, §7, §8, §9, §10, §11, §12, §13, §15

[9] = tested on: NIH3T3 cells overexpressing cystatin E; experiment: MTT cell viability, cystatin E overexpressing cells vs parental line; conditions: cystatin E high-expressing cells / parental cell line, 3 to 4 days
Protocol: as §1, §2, §3, §4, §5, §6, §7, §8, §9, §10, §11, §12, §13, §14

[10] = tested on: NIH3T3 cells overexpressing HNF4; experiment: MTT cell viability, HNF4 overexpressing cells vs parental line; conditions: HNF4 high-expressing cells / parental cell line, 3 to 4 days
Protocol: as §1, §2, §3, §4, §5, §6, §7, §8, §9, §10, §11, §12, §13, §15

[11] = tested on: NIH3T3 cells overexpressing calpastatin; experiment: MTT cell viability, calpastatin overexpressing cells vs parental line; conditions: calpastatin high-expressing cells / parental cell line, 3 to 4 days
Protocol: as §1, §2, §3, §4, §5, §6, §7, §8, §9, §10, §11, §12, §13, §14

[12] = tested on: NIH3T3 cells overexpressing Regucalcin; experiment: MTT cell viability, Regucalcin overexpressing cells vs parental line; conditions: Regucalcin high-expressing cells / parental cell line, 3 to 4 days
Protocol: as §1, §2, §3, §4, §5, §6, §7, §8, §9, §10, §11, §12, §13, §14

[13] = tested on: NIH3T3 cells overexpressing erbB2; experiment: MTT cell viability, erbB2 overexpressing cells vs parental line; conditions: erbB2 high-expressing cells / parental cell line, 3 to 4 days
Protocol: as §1, §2, §3, §4, §5, §6, §7, §8, §9, §10, §11, §12, §13, §14

[14] = tested on: NIH3T3 cells overexpressing HNF1; experiment: MTT cell viability, HNF1 overexpressing cells vs parental line; conditions: HNF1 high-expressing cells / parental cell line, 3 to 4 days
Protocol: as §1, §2, §3, §4, §5, §6, §7, §8, §9, §10, §11, §12, §13, §15

[15] = tested on: NIH3T3 cells overexpressing caspase-1; experiment: MTT cell viability, caspase-1 overexpressing cells vs parental line; conditions: caspase-1 high-expressing cells / parental cell line, 3 to 4 days
Protocol: as §1, §2, §3, §4, §5, §6, §7, §8, §9, §10, §11, §12, §13, §15

[16] = tested on: NIH3T3 cells overexpressing v-src; experiment: MTT cell viability, v-src overexpressing cells vs parental line; conditions: v-src high-expressing cells / parental cell line, 3 to 4 days
Protocol: as §1, §2, §3, §4, §5, §6, §7, §8, §9, §10, §11, §12, §13, §14

[17] = tested on: NIH3T3 cells overexpressing TK; experiment: MTT cell viability, TK overexpressing cells vs parental line; conditions: TK high-expressing cells / parental cell line, 3 to 4 days
Protocol: as §1, §2, §3, §4, §5, §6, §7, §8, §9, §10, §11, §12, §13, §14

[18] = tested on: NIH3T3 cells overexpressing coup; experiment: MTT cell viability, coup overexpressing cells vs parental line; conditions: coup high-expressing cells / parental cell line, 3 to 4 days
Protocol: as §1, §2, §3, §4, §5, §6, §7, §8, §9, §10, §11, §12, §13, §14

[19] = tested on: NIH3T3 cells overexpressing caspase-2; experiment: MTT cell viability, caspase-2 overexpressing cells vs parental line; conditions: caspase-2 high-expressing cells / parental cell line, 3 to 4 days
Protocol: as §1, §2, §3, §4, §5, §6, §7, §8, §9, §10, §11, §12, §13, §14

[20] = tested on: NIH3T3 cells overexpressing CP-antisense; experiment: MTT cell viability, CP-antisense cells vs parental line; conditions: 3 to 4 days
Protocol: as §1, §2, §3, §4, §5, §6, §7, §8, §9, §10, §11, §12, §13, §14

[21] = Bax (first of two Bax lines) high-expressing cells / parental cell line
[22] = Bax (second of two Bax lines) high-expressing cells / parental cell line

| SMILES | logarithmic value of ratio of IC40 values [1] | logarithmic value of ratio of IC40 values [2] | logarithmic value of ratio of IC40 values [3] | logarithmic value of ratio of IC40 values [4] | logarithmic value of ratio of IC40 values [5] | logarithmic value of ratio of IC40 values [6] | logarithmic value of ratio of IC40 values [7] | logarithmic value of ratio of IC40 values [8, 21] | logarithmic value of ratio of IC40 values [8, 22] | logarithmic value of ratio of IC40 values [9] | logarithmic value of ratio of IC40 values [10] | logarithmic value of ratio of IC40 values [11] | logarithmic value of ratio of IC40 values [12] | logarithmic value of ratio of IC40 values [13] | logarithmic value of ratio of IC40 values [14] | logarithmic value of ratio of IC40 values [15] | logarithmic value of ratio of IC40 values [16] | logarithmic value of ratio of IC40 values [17] | logarithmic value of ratio of IC40 values [18] | logarithmic value of ratio of IC40 values [19] | other results |
| --- | --- | --- | --- | --- | --- | --- | --- | --- | --- | --- | --- | --- | --- | --- | --- | --- | --- | --- | --- | --- | --- |
| CO[C@H]1[C@@H](OC)C[C@H](C)[C@@H](OC)C2=CC(=O)C=C(NC(=O)/C(C)=C/C=C\[C@H](OC)[C@@H](OC(N)=O)/C(C)=C/[C@@H]1C)C2=O [HMA, herbimycin A] | −0.14 | 0.00 | −0.05 | 0.19 | 0.38 | 0.09 | −0.05 | −0.05 | 0.15 | 0.00 | −0.08 | −0.14 | −0.20 | −0.55 | 0.161 | 0.00 | −0.35 | 0.00 | 0.42 | 0.10 | logarithmic value of ratio of IC40 values [20]: −0.10 |
| COC(=O)[C@@]1(O)C[C@H]2O[C@]1(C)n1c3ccccc3c3c4c(c5c6ccccc6n2c5c31)C(=O)NC4 [K252a] | 0.15 | 0.04 | −0.15 | 0.10 | 0.28 | 0.28 | 0.15 | −0.11 | 0.60 | −0.19 | −0.22 | 0.1 | −0.34 | 0.15 | −0.207 | 0.04 | −0.22 | 0.23 | 0.00 | 0.37 | logarithmic value of ratio of IC40 values [20]: 0.00 |
| CCCC[C@@H](C)/C=C(C)/C=C(\C)C(=O)NC1=C[C@@](O)(/C=C/C=C/C=C/C(=O)NC2=C(O)CCC2=O)[C@@H]2O[C@@H]2C1=O [Manumycin, manumycin] | −0.24 | 0.00 | 0.00 | 0.17 | 0.18 | 0.09 | 0.00 | −0.07 | 0.06 | 0.00 | 0.00 | 0.02 | 0.04 | −0.05 | 0.06 | −0.06 | 0.00 | 0.00 | 0.09 | 0.08 | logarithmic value of ratio of IC40 values [20]: 0.00 |
| O=[As]O [NaAsO2, sodium arsenite] | 0.08 | 0.00 | 0.00 | 0.14 | −0.07 | 0.21 | 0.16 | −0.10 | 0.34 | 0.15 | 0.00 | 0 | 0.03 | −0.15 | −0.14 | −0.21 | 0.11 | 0.18 | −0.19 | 0.18 | logarithmic value of ratio of IC40 values [20]: 0.02 |
| C=C1[C@@H](O)[C@@H]2O[C@]3(CC[C@H](/C=C/[C@@H](C)[C@@H]4CC(C)=C[C@@]5(O[C@H](C[C@@](C)(O)C(=O)O)CC[C@H]5O)O4)O3)CC[C@H]2O[C@@H]1[C@@H](O)C[C@H](C)[C@H]1O[C@@]2(CCCCO2)CC[C@H]1C [OA, okadaic acid] | 0.04 | 0.00 | 0.12 | 0.16 | 0.11 | 0.12 | 0.14 | 0.00 | 0.00 | −0.52 | 0.08 | −0.04 | −0.10 | −0.19 | 0 | 0.00 | 0.18 | 0.00 | 0.00 | 0.06 | logarithmic value of ratio of IC40 values [20]: 0.13 |
